Experimental data: patent US6492419B1, “Aqueous insecticidal pour-on formulation” (Schering-Plough Animal Health Corp., priority 1997, dated 2002)

Key:
Type in all cases: in vivo
sheep lice = experiment: Field efficacy (control of sheep lice); conditions: 25 g/L; for Pre treatment mean lice count: baseline
[1] = Tissue residues after aqueous pour-on, cattle; conditions: 15 mg/kg pour-on, LOQ = 0.02 mg/kg
Protocol: (§1) Tissue residue studies were carried out following application of the aqueous pour-on to both sheep and cattle (Reference is made to page 1, lines 34 and 35 where it is mentioned that treatment with non aqueous pour-on formulations can lead to high tissue residues in animals treated with these formulations.)

[2] = Tissue residues after aqueous pour-on, sheep; conditions: 20 mg/kg pour-on, LOQ = 0.02 mg/kg
Protocol: as §1

[3] = tested on: Bovicola ovis (Schrank), sheep body louse; experiment: Pen trial of diflubenzuron pour-on against sheep lice (Examples 2-4); conditions: for % Lice reduction: corrected lice counts
Text: Order—Phthiraptera, Sub Order—Mallophaga, Family—Trichodectidae, Genus—Damalinia (Bovicola, Trichodectes), Species—Bovicola ovis (Schrank) and Common name—Sheep body louse.
The sheep used in this study were a uniform line of Merino wethers heavily infected with lice.
The method requires examination of twenty partings each 10 cm long, along two contours on the left and right sides covering the wool growing regions of the animal. At each of the 40 recorded sites all live adult lice are counted. Site counts are summed to give a total count for the animal.
Within 24 hours of shearing, treatments were applied as a single stripe along the backline of the sheep. The dose rate applied was based on 20 mL of treatment per animal which is based on all test animals being in the 30.1-55 kg weight range.
The delivery apparatus for each formulation was a commercial applicator, set to deliver 1×20 mL doses to the sheep backline. The gun was calibrated using a volumetric cylinder and checked twice before and once after treatment.
To avoid the possibility of rain complicating the post treatment situation the sheep were kept in pens for a minimum of 48 hours. Then on the morning of the 25 th day of the trial, they were placed into their paddocks. […]

O=C(NC(=O)c1c(F)cccc1F)Nc1ccc(Cl)cc1 [Diflubenzuron, diflubenzuron]
% Lice reduction (sheep lice; Trial 1, Uraila, N.S.W., 1309 fine wool merinos, after 6 weeks): 98.1% | % Lice reduction (sheep lice; Trial 1, Uraila, N.S.W., 1309 fine wool merinos, after 12 weeks): 98.7% | % Lice reduction (sheep lice; Trial 1, Uraila, N.S.W., 1309 fine wool merinos, after 20 weeks): 100% | Pre treatment mean lice count (sheep lice; Trial 1, Uraila, N.S.W., 1309 fine wool merinos): 156 | % Lice reduction (sheep lice; Trial 2, Guyra, N.S.W., 2000 super fine wool, after 6 weeks): 100% | % Lice reduction (sheep lice; Trial 2, Guyra, N.S.W., 2000 super fine wool, after 12 weeks): 100% | % Lice reduction (sheep lice; Trial 2, Guyra, N.S.W., 2000 super fine wool, after 20 weeks): 100% | Pre treatment mean lice count (sheep lice; Trial 2, Guyra, N.S.W., 2000 super fine wool): 41 | % Lice reduction (sheep lice; Trial 3, Crookwell, N.S.W., 680 medium fine wool merinos, after 6 weeks): 91.3% | % Lice reduction (sheep lice; Trial 3, Crookwell, N.S.W., 680 medium fine wool merinos, after 12 weeks): 99.6% | % Lice reduction (sheep lice; Trial 3, Crookwell, N.S.W., 680 medium fine wool merinos, after 20 weeks): 100% | Pre treatment mean lice count (sheep lice; Trial 3, Crookwell, N.S.W., 680 medium fine wool merinos): 242 | % Lice reduction (sheep lice; Trial 4, Lucindale, N.S.W, 1094 strong wool merinos, after 6 weeks): 99.8% | % Lice reduction (sheep lice; Trial 4, Lucindale, N.S.W, 1094 strong wool merinos, after 12 weeks): 100% | % Lice reduction (sheep lice; Trial 4, Lucindale, N.S.W, 1094 strong wool merinos, after 20 weeks): 100% | Pre treatment mean lice count (sheep lice; Trial 4, Lucindale, N.S.W, 1094 strong wool merinos): 35 | % Lice reduction (sheep lice; Trial 5, Coonalpyn, S.A., 1101 strong wool merinos, after 6 weeks): 99.6% | % Lice reduction (sheep lice; Trial 5, Coonalpyn, S.A., 1101 strong wool merinos, after 12 weeks): 100% | % Lice reduction (sheep lice; Trial 5, Coonalpyn, S.A., 1101 strong wool merinos, after 20 weeks): 100% | Pre treatment mean lice count (sheep lice; Trial 5, Coonalpyn, S.A., 1101 strong wool merinos): 142 | % Lice reduction (sheep lice; Trial 6, Lismore, Vic, 812 super fine merinos, after 6 weeks): 99.5% | % Lice reduction (sheep lice; Trial 6, Lismore, Vic, 812 super fine merinos, after 12 weeks): 100% | % Lice reduction (sheep lice; Trial 6, Lismore, Vic, 812 super fine merinos, after 20 weeks): 100% | Pre treatment mean lice count (sheep lice; Trial 6, Lismore, Vic, 812 super fine merinos): 51 | Level of diflubenzuron residues in fat tissues, Inguinal fat ([1]; 1 day post treatment): <LOQ | Level of diflubenzuron residues in fat tissues, Inguinal fat ([1]; 3 days post treatment): <LOQ | Level of diflubenzuron residues in fat tissues, Inguinal fat ([1]; 7 days post treatment): <LOQ | Level of diflubenzuron residues in fat tissues, Peri-renal fat ([1]; 7 days post treatment): <LOQ | Level of diflubenzuron residues in fat tissues, Inguinal fat ([1]; 14 days post treatment): <LOQ | Level of diflubenzuron residues in fat tissues, Peri-renal fat ([1]; 14 days post treatment): <LOQ | concentration at 1 day ([1]; bovine, peri-renal fat, topical, 1 day post treatment, read-out: Level of diflubenzuron residues in fat tissues, Peri-renal fat): 170 ng/g | concentration at 3 days ([1]; bovine, peri-renal fat, topical, 3 days post treatment, read-out: Level of diflubenzuron residues in fat tissues, Peri-renal fat): 90 ng/g | Level of diflubenzuron residues in tissues, Kidney ([2]; 1 day post treatment): <LOQ | Level of diflubenzuron residues in tissues, Liver ([2]; 1 day post treatment): <LOQ | Level of diflubenzuron residues in tissues, Muscle ([2]; 1 day post treatment): <LOQ | Level of diflubenzuron residues in tissues, Inguinal fat ([2]; 1 day post treatment, max): ≤ 0.02 max mg/kg | Level of diflubenzuron residues in tissues, peri-renal fat ([2]; 1 day post treatment, max): ≤ 0.03 max mg/kg | Level of diflubenzuron residues in tissues, Kidney ([2]; 3 days post treatment): <LOQ | Level of diflubenzuron residues in tissues, Liver ([2]; 3 days post treatment): <LOQ | Level of diflubenzuron residues in tissues, Muscle ([2]; 3 days post treatment): <LOQ | Level of diflubenzuron residues in tissues, Inguinal fat ([2]; 3 days post treatment, max): ≤ 0.04 max mg/kg | Level of diflubenzuron residues in tissues, peri-renal fat ([2]; 3 days post treatment, max): ≤ 0.02 max mg/kg | Level of diflubenzuron residues in tissues, Kidney ([2]; 7 days post treatment): <LOQ | Level of diflubenzuron residues in tissues, Liver ([2]; 7 days post treatment): <LOQ | Level of diflubenzuron residues in tissues, Muscle ([2]; 7 days post treatment): <LOQ | Level of diflubenzuron residues in tissues, Inguinal fat ([2]; 7 days post treatment, max): ≤ 0.03 max mg/kg | Level of diflubenzuron residues in tissues, peri-renal fat ([2]; 7 days post treatment, max): ≤ 0.02 max mg/kg | Level of diflubenzuron residues in tissues, Kidney ([2]; 14 days post treatment): <LOQ | Level of diflubenzuron residues in tissues, Liver ([2]; 14 days post treatment): <LOQ | Level of diflubenzuron residues in tissues, Muscle ([2]; 14 days post treatment): <LOQ | Level of diflubenzuron residues in tissues, peri-renal fat ([2]; 14 days post treatment): <LOQ | Level of diflubenzuron residues in tissues, Inguinal fat ([2]; 14 days post treatment, max): ≤ 0.02 max mg/kg | Level of diflubenzuron residues in tissues, Kidney ([2]; 21 days post treatment): <LOQ | Level of diflubenzuron residues in tissues, Liver ([2]; 21 days post treatment): <LOQ | Level of diflubenzuron residues in tissues, Muscle ([2]; 21 days post treatment): <LOQ | Level of diflubenzuron residues in tissues, peri-renal fat ([2]; 21 days post treatment): <LOQ | Level of diflubenzuron residues in tissues, Inguinal fat ([2]; 21 days post treatment, max): ≤ 0.05 max mg/kg | Level of diflubenzuron residues in tissues, Inguinal fat ([2]; 42 days post treatment): <LOQ | Level of diflubenzuron residues in tissues, Kidney ([2]; 42 days post treatment): <LOQ | Level of diflubenzuron residues in tissues, Liver ([2]; 42 days post treatment): <LOQ | Level of diflubenzuron residues in tissues, Muscle ([2]; 42 days post treatment): <LOQ | Level of diflubenzuron residues in tissues, peri-renal fat ([2]; 42 days post treatment): <LOQ | lice killed ([3]; 12.5 and 25.0 g/L, 20 ml dose along the backline of sheep, within 10 weeks of application): 95% | lice kills ([3]; 12.5 and 25.0 g/L, 20 ml dose along the backline of sheep, within 20 weeks): 100% | % Lice reduction ([3]; 12.5 g/L pour-on, sheep, after 2 weeks): 91.0% | % Lice reduction ([3]; 12.5 g/L pour-on, sheep, after 5 weeks): 94.9% | % Lice reduction ([3]; 12.5 g/L pour-on, sheep, after 10 weeks): 98.9% | % Lice reduction ([3]; 12.5 g/L pour-on, sheep, after 15 weeks): 100.0% | % Lice reduction ([3]; 12.5 g/L pour-on, sheep, after 20 weeks): 100.0% | Mean Lice Counts ([3]; 12.5 g/L, 20 mL backline (250 mg per sheep), 5 Merino wethers, week 0 (baseline)): 161.8 | Mean Lice Counts ([3]; 12.5 g/L, 20 mL backline, sheep, 2 weeks after treatment): 6.8 | Mean Lice Counts ([3]; 12.5 g/L, 20 mL backline, sheep, 5 weeks after treatment): 1.8 | Mean Lice Counts ([3]; 12.5 g/L, 20 mL backline, sheep, 10 weeks after treatment): 0.4 | Mean Lice Counts ([3]; 12.5 g/L, 20 mL backline, sheep, 15 weeks after treatment): 0.0 | Mean Lice Counts ([3]; 12.5 g/L, 20 mL backline, sheep, 20 weeks after treatment): 0.0 | % Lice reduction ([3]; 25.0 g/L pour-on, sheep, after 2 weeks): 69.6% | % Lice reduction ([3]; 25.0 g/L pour-on, sheep, after 5 weeks): 83.4% | % Lice reduction ([3]; 25.0 g/L pour-on, sheep, after 10 weeks): 94.8% | % Lice reduction ([3]; 25.0 g/L pour-on, sheep, after 15 weeks): 96.4% | % Lice reduction ([3]; 25.0 g/L pour-on, sheep, after 20 weeks): 100.0% | Mean Lice Counts ([3]; 25.0 g/L, 20 mL backline (500 mg per sheep), 5 Merino wethers, week 0 (baseline)): 120.6 | Mean Lice Counts ([3]; 25.0 g/L, 20 mL backline, sheep, 2 weeks after treatment): 17.2 | Mean Lice Counts ([3]; 25.0 g/L, 20 mL backline, sheep, 5 weeks after treatment): 4.4 | Mean Lice Counts ([3]; 25.0 g/L, 20 mL backline, sheep, 10 weeks after treatment): 1.4 | Mean Lice Counts ([3]; 25.0 g/L, 20 mL backline, sheep, 15 weeks after treatment): 1.0 | Mean Lice Counts ([3]; 25.0 g/L, 20 mL backline, sheep, 20 weeks after treatment): 0.0
